Experimental data: patent US20220047569A1, “METHOD AND COMPOUND FOR USE, IN TREATING AND/OR PREVENTING NETOSIS” (Jubilant EpiPad LLC, priority 2020, published 2022)

Experiments:
[1] = system: NETosis in human neutrophils; assay: NETosis assay (SYTOX green, flow cytometry); assay type: cell-based; settings: Neutrophil, two independent NETosis assays, read-out: Average percent inhibition
Experimental: Neutrophils were isolated according to the EasySep Direct Human Neutrophil Isolation Kit. In short, 50 mL of blood sample was drawn in a vacutainer containing K2EDTA from a healthy donor. To the whole blood, the isolation cocktail of 50 μL/mL was added. Then, in the next step 50 μL/mL of RapidSpheres™ was added to the sample. The sample was mixed evenly with the pipette and incubated for 10 minutes at room temperature. After incubation, PBS containing 1 mM EDTA was added at the ratio of 1:1 to the blood. Then the sample tube was incubated for 10 minutes. The enriched cell suspension was transferred into a new tube and RapidSpheres™ were added at 50 μL/mL to this suspension, mixed and incubated for 10 minutes at room temperature. At this step, the enriched cell suspension was carefully collected as a clear fraction into a fresh tube. Then, previous tube was replaced with the fresh tube containing enriched cell suspension. After the final separation, the clear solution of enriched cell suspension was carefully transferred to fresh tube which was ready to use for the experiment. These cells were then subjected to wash twice with plain RPMI 1640 media without Fetal Bovine Serum (FBS) and centrifuged at 1500 rpm for 5 minutes at room temperature. Cell counts were performed on each sample by Invitrogen cell counter. After the cell count, cell density was adjusted according to the experiment and re-suspended in complete RPMI media containing RPMI1640, 2% BSA and 1 mM CaCl2.
Freshly isolated neutrophils from human donor were seeded at a density of 0.5×10^6 cells in 400 μL cell suspension/well in a 24-well plate and cells were pre-incubated with the compound for 30 minutes by adding 50 μL of the 10× concentration to achieve the final 1× concentration of compound (10 μM, 1 μM and 0.1 μM). 1% DMSO was added in control wells. […]
Average percent inhibition for compound 143 was calculated as 2% at 0.1 μM, 30% at 1 μM and 85% at 10 μM in two independent NETosis assays using human neutrophils.

[2] = system: silica induced lung fibrosis; assay: Silica induced pro-fibrotic lung model; assay type: in vivo, C57BL/6 female mice; settings: 50 mg/kg PO, BID, day 7 to 11, therapeutic; silica mice
Experimental: The instillation of silica into the murine lung results in the development of fibrotic nodules that resemble simple silicotic nodular fibrosis, which develop in humans following some occupational exposures to dust and particulate aerosols. Silica can be delivered to rodents via aerosolization, intratracheal administration or oropharyngeal aspiration. C57BL/6 female mice at an age of 6-8 weeks were instilled with silica particles (2.5 mg/mouse) by non-surgical intratracheal (IT) method. The day of silica instillation was defined as day 0. Test compound was administered twice daily and standard of care was dosed once daily from day 7 to 11 for therapeutic intervention. Animals were monitored and evaluated for their clinical signs and body weight loss. Animals were euthanized on day 11 and the lungs were weighed and biomarkers were analyzed in lung.

DSS-induced colitis = assay: Dextran sulfate sodium (DSS) induced colitis model; assay type: in vivo, C57BL/6 male mice; settings: PO BID
Excerpt: Ulcerative colitis (UC) is an intermittent inflammatory bowel disease of the colonic mucosa, with periods of exacerbated symptoms (the active phase of the disease), and periods that are relatively symptom-free (remission phase of disease). Among various chemical induced colitis models, DSS-induced colitis model is widely used because of its simplicity and many similarities with human ulcerative colitis. C57BL/6 male mice at 6-8 weeks of age were purchased from vivo biotech India (under the license from Taconic). The procedures involving the care and use of animals in the study was reviewed and approved by the Institutional Animal Care and Use Committee (IAEC/JDC/2018-161R) prior to conduct. During the study, the care and use of animals was in accordance with the principles outlined in the Guide for the Care and Use of Laboratory Animals, 8th Edition, 2010 (National Research Council) and every effort was made to minimize suffering. The animals were acclimatized for ˜10 days prior to experimental use. Mice were caged with free access to food and fresh water in a temperature-controlled room (22° C.-24° C.) on a 12 h light/dark cycle. On the day of DSS administration (day 0), labelled (using ear punch or any other convenient method) groups of control and experimental mice should be weighed and, if required, average group weight equilibrated so as to eliminate any significant weight difference between groups. Normal control animals were provided with regular drinking water and disease control animals were provided with 2.25% DSS in drinking water for 5 days (Day 1 to Day 5) and next 5 days, both the groups received regular drinking water (Day 6 to Day 10). DSS was replaced with fresh DSS formulation once in 2.5 days. Animals were dosed with Vehicle (0.5% Methyl cellulose in PBS+0.025% Tween-80), Compound 143, PO, bid and Fingolimod, PO, qd. Administration of 2.25% DSS in drinking water induced significant ulcerative colitis leading to ˜5-fold disease induction in mice of disease control group compared to normal control. […]

In the case of `N[C@@H]1CCCN(C(=O)c2cc3c4c(c2)nc(-c2cc5cccc(Cl)c5n2CC2CC2)n4CCO3)C1` [Compound 143, (R)-(3-aminopiperidin-1-yl)(2-(7-chloro-1-(cyclopropylmethyl)-1H-indol-2-yl)-3,4-dihydro-5-oxa-1,2a-diazaacenaphthylen-7-yl)methanone], the inhibition at 0.1 µM ([1]; at 0.1 μM) was 2%, the inhibition at 1 µM ([1]; at 1 μM) was 30% and the inhibition at 10 µM ([1]; at 10 μM) was 85%. For the same molecule, the Fibronectin level [2] was “significant decrease”, the Lung weight [2] was “significant decrease” and the “Disease reversal compared to disease control” value (DSS-induced colitis; 12.5 mg/kg) was 8.7%. For the same molecule, the “Disease reversal compared to disease control” value (DSS-induced colitis; 25 mg/kg) was 26.6% and the “Disease reversal compared to disease control” value (DSS-induced colitis; 50 mg/kg) was 45.5%.
